Laboratory results as given in patent US12522583B2, “Benzimidazole derivatives and aza-benzimidazole derivatives as Janus kinase 2 inhibitors and uses thereof” (Dana-Farber Cancer Institute, Inc., priority 2018, dated 2026).

How the values were obtained:
Experiment in all cases: KINOMEscan
Assay type in all cases: binding
EGFR(L747-T751del, Sins) = conditions: 1 μM
Excerpt: (§1) Example 2. In Vitro Kinase Selectivity Profiling of the Compounds of the Present Disclosure

TNIK = TNIK (Homo sapiens (Human), UniProt Q9UKE5); conditions: read-out: percent control
Excerpt: as §1

KIT(V559D, T670I) = KIT(V559D, T670I) (Homo sapiens (Human), UniProt P10721, T670I/V559D); conditions: read-out: percent control
Excerpt: as §1

[1] = target: RSK4(Kin.Dom.2-C-terminal) (Homo sapiens (Human), UniProt Q9UK32); conditions: read-out: percent control
Excerpt: as §1

EPHA5 = EPHA5 (Homo sapiens (Human), UniProt P54756); conditions: read-out: percent control
Excerpt: as §1

CLK3 = CLK3 (Homo sapiens (Human), UniProt P49761); conditions: read-out: percent control
Excerpt: as §1

KIT(L576P) = KIT(L576P) (Homo sapiens (Human), UniProt P10721, L576P); conditions: read-out: percent control
Excerpt: as §1

MEK2 = MEK2 (Homo sapiens (Human), UniProt P36507); conditions: read-out: percent control
Excerpt: as §1

[2] = target: RSK2(Kin.Dom.1-N-terminal) (Homo sapiens (Human), UniProt P51812); conditions: read-out: percent control
Excerpt: as §1

IRAK4 = IRAK4 (Homo sapiens (Human), UniProt Q9NWZ3); conditions: read-out: percent control
Excerpt: as §1

TNNI3K = TNNI3K (Homo sapiens (Human), UniProt Q59H18); conditions: read-out: percent control
Excerpt: as §1

CDK8 = CDK8 (Homo sapiens (Human), UniProt P49336); conditions: read-out: percent control
Excerpt: as §1

VEGFR2 = VEGFR2 (Homo sapiens (Human), UniProt P35968); conditions: read-out: percent control
Excerpt: as §1

PKN2 = PKN2 (Homo sapiens (Human), UniProt Q16513); conditions: read-out: percent control
Excerpt: as §1

MAP3K2 = MAP3K2 (Homo sapiens (Human), UniProt Q9Y2U5); conditions: read-out: percent control
Excerpt: as §1

PKAC-beta = PKAC-beta (Homo sapiens (Human), UniProt P22694); conditions: read-out: percent control
Excerpt: as §1

JNK1 = JNK1 (Homo sapiens (Human), UniProt P45983); conditions: read-out: percent control
Excerpt: as §1

DYRK2 = DYRK2 (Homo sapiens (Human), UniProt Q92630); conditions: read-out: percent control
Excerpt: as §1

TXK = TXK (Homo sapiens (Human), UniProt P42681); conditions: read-out: percent control
Excerpt: as §1

PFPK5(P.falciparum) = PFPK5(P.falciparum) (Plasmodium falciparum (isolate 3D7), UniProt P61075); conditions: read-out: percent control
Excerpt: as §1

RIOK2 = RIOK2 (Homo sapiens (Human), UniProt Q9BVS4); conditions: read-out: percent control
Excerpt: as §1

CDK2 = CDK2 (Homo sapiens (Human), UniProt P24941); conditions: read-out: percent control
Excerpt: as §1

MLK1 = MLK1 (Homo sapiens (Human), UniProt P80192); conditions: read-out: percent control
Excerpt: as §1

PIP5K1C = PIP5K1C (Homo sapiens (Human), UniProt O60331); conditions: read-out: percent control
Excerpt: as §1

EPHB1 = EPHB1 (Homo sapiens (Human), UniProt P54762); conditions: read-out: percent control
Excerpt: as §1

LCK = LCK (Homo sapiens (Human), UniProt P06239); conditions: read-out: percent control
Excerpt: as §1

MST3 = MST3 (Homo sapiens (Human), UniProt Q9Y6E0); conditions: read-out: percent control
Excerpt: as §1

EGFR(L858R, T790M) = EGFR(L858R, T790M) (Homo sapiens (Human), UniProt P00533, L858R/T790M); conditions: read-out: percent control
Excerpt: as §1

EPHA3 = EPHA3 (Homo sapiens (Human), UniProt P29320); conditions: read-out: percent control
Excerpt: as §1

PKNB(M.tuberculosis) = PKNB(M.tuberculosis) (Mycobacterium tuberculosis (strain ATCC 25618 / H37Rv), UniProt P9WI81); conditions: read-out: percent control
Excerpt: as §1

BRAF(V600E) = BRAF(V600E) (Homo sapiens (Human), UniProt P15056, V600E); conditions: read-out: percent control
Excerpt: as §1

BUB 1 = BUB 1 (Homo sapiens (Human), UniProt O43683); conditions: read-out: percent control
Excerpt: as §1

GRK2 = GRK2 (Homo sapiens (Human), UniProt P25098); conditions: read-out: percent control
Excerpt: as §1

MAP3K15 = MAP3K15 (Homo sapiens (Human), UniProt Q6ZN16); conditions: read-out: percent control
Excerpt: as §1

CSF1R = CSF1R (Homo sapiens (Human), UniProt P07333); conditions: read-out: percent control
Excerpt: as §1

[3] = target: JAK1(JH2domain-pseudokinase) (Homo sapiens (Human), UniProt P23458); conditions: read-out: percent control
Excerpt: as §1

HASPIN = HASPIN (Homo sapiens (Human), UniProt Q8TF76); conditions: read-out: percent control
Excerpt: as §1

BTK = BTK (Homo sapiens (Human), UniProt Q06187); conditions: read-out: percent control
Excerpt: as §1

LZK = LZK (Homo sapiens (Human), UniProt O43283); conditions: read-out: percent control
Excerpt: as §1

NEK4 = NEK4 (Homo sapiens (Human), UniProt P51957); conditions: read-out: percent control
Excerpt: as §1

HASPIN, sequence (Q8TF76 whole entry): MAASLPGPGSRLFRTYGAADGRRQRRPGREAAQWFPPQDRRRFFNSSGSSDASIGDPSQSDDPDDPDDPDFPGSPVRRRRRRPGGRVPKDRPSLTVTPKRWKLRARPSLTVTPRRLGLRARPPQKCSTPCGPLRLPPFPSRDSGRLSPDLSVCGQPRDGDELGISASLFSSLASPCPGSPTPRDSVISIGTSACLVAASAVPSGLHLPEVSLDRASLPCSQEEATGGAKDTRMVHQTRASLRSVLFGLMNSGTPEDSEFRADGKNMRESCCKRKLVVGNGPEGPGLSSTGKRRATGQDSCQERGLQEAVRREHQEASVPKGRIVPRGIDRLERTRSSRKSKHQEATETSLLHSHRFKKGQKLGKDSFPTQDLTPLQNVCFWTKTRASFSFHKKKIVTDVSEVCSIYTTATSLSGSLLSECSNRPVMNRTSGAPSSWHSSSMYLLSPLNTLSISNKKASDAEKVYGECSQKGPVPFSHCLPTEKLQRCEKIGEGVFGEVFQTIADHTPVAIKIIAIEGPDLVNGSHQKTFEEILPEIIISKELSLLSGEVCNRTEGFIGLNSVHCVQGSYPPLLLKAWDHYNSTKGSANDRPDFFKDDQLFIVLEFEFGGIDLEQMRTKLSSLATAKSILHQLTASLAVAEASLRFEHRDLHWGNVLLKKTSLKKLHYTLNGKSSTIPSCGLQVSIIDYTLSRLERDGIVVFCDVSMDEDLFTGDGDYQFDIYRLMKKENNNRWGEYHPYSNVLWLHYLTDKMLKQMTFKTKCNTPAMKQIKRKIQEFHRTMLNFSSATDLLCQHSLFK
EGFR(L858R, T790M), sequence (P00533 25-1210 T790M/L858R): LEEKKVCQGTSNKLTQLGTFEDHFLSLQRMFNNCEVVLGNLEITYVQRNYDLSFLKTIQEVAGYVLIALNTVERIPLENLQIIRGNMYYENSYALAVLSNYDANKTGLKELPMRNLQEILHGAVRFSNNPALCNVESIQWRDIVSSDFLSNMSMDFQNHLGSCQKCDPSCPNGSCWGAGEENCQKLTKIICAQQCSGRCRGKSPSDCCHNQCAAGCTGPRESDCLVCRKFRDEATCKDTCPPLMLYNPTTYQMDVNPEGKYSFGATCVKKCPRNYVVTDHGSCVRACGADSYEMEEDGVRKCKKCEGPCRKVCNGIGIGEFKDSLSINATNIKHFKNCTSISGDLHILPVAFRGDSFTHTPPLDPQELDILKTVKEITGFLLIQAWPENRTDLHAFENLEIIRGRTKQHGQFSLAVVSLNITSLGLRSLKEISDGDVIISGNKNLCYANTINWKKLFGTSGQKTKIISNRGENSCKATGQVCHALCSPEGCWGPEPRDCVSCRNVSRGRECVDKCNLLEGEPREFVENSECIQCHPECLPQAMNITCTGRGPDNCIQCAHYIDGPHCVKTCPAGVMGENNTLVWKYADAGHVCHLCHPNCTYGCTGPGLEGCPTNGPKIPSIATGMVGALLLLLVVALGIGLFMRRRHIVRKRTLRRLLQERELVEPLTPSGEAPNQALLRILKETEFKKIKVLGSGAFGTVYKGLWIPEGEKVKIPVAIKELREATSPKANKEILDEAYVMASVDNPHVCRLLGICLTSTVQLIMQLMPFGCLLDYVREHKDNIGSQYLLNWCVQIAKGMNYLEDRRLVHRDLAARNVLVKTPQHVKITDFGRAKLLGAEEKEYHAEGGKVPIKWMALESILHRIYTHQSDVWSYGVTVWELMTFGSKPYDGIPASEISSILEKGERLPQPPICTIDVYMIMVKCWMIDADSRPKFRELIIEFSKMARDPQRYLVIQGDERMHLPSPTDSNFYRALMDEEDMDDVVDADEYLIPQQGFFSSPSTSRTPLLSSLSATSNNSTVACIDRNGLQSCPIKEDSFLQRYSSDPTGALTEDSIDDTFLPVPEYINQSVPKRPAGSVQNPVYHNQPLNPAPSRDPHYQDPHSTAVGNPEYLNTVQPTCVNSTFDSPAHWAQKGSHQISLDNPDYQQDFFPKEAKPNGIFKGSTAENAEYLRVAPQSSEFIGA
KIT(V559D, T670I), sequence (P10721 26-976 V559D/T670I): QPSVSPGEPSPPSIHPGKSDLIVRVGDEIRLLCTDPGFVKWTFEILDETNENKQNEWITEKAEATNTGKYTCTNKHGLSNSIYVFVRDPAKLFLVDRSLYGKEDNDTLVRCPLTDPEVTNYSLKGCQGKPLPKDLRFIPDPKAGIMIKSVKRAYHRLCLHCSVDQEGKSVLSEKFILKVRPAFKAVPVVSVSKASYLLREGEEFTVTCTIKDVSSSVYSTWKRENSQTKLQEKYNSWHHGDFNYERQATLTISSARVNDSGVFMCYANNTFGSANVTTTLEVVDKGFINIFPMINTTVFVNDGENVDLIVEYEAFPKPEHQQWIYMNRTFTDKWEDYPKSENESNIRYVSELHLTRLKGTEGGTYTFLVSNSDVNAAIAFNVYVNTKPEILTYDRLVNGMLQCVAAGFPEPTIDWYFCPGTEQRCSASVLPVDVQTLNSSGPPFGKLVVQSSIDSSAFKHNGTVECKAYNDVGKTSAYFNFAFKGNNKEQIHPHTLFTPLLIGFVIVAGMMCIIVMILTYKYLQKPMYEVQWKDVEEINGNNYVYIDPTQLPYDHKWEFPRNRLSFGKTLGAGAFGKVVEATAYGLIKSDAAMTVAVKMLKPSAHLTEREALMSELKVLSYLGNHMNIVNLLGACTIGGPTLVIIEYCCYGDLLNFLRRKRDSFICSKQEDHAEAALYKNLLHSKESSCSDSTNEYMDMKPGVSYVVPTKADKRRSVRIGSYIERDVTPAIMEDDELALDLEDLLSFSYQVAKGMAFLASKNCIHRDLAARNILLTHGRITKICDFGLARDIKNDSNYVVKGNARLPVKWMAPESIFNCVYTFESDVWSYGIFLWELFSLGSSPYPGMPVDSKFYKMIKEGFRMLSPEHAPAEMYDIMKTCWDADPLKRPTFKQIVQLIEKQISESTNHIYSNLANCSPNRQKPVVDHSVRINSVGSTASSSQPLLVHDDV
GRK2, sequence (P25098 whole entry): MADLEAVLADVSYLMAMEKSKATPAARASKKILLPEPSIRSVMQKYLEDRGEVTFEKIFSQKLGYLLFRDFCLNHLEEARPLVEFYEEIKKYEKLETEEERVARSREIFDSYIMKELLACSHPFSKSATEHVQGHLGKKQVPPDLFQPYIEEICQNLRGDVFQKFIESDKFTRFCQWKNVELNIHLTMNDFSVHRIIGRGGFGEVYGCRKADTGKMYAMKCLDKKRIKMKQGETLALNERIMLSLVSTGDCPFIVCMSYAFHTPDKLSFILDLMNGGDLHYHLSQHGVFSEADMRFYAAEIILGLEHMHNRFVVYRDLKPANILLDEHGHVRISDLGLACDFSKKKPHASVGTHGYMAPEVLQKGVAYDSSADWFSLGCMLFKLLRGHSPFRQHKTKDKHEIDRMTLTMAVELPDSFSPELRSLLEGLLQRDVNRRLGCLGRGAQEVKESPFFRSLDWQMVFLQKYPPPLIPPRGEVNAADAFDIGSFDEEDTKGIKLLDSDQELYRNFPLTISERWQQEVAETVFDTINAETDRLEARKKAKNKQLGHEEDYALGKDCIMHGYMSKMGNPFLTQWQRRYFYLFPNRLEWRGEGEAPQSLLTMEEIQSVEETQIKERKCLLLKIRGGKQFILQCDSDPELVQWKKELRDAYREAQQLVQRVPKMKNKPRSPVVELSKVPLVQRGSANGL
VEGFR2, sequence (P35968 20-1356): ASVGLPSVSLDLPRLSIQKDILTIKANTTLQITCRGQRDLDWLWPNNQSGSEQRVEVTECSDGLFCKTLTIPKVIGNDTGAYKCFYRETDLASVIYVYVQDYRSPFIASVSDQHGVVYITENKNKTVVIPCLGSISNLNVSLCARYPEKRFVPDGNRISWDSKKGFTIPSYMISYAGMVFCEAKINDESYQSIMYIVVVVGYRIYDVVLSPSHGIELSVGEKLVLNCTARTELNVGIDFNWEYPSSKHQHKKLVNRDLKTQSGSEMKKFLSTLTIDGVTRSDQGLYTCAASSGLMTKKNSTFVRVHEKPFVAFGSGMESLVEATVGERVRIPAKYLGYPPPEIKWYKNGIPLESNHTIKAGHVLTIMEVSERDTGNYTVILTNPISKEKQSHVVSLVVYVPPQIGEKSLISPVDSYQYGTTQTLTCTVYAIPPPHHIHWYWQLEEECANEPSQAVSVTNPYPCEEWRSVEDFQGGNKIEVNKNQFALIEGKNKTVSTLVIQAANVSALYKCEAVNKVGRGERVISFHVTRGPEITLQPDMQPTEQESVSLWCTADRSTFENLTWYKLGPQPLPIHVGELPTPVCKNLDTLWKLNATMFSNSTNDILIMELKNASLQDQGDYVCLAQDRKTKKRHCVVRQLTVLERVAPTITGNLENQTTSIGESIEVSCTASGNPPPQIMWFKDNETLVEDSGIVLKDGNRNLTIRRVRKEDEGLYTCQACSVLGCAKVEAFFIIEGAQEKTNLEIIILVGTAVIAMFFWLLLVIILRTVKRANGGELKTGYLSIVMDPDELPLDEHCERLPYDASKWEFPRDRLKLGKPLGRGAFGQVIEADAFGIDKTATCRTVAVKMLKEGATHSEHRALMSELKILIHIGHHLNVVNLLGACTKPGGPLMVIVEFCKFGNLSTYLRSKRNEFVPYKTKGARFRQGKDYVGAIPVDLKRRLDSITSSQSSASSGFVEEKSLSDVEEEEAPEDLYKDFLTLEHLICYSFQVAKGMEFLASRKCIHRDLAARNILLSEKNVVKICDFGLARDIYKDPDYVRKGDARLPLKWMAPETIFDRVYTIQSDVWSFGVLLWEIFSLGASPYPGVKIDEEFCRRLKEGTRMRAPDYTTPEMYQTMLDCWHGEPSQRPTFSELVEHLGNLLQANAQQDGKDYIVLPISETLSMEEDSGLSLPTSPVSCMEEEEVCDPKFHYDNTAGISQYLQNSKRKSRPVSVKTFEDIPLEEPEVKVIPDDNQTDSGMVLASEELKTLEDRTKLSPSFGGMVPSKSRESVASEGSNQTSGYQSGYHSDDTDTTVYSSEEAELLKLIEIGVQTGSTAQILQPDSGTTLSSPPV
KIT(L576P), sequence (P10721 26-976 L576P): as the sequence (P10721 26-976 V559D/T670I) above, with D534V, L551P, I645T counted along it

Compound	percent control (EGFR(L747-T751del, Sins))	remaining binding at 1 µM (TNIK)	remaining binding at 1 µM (KIT(V559D, T670I))	remaining binding at 1 µM [1]	remaining binding at 1 µM (EPHA5)	remaining binding at 1 µM (CLK3)	remaining binding at 1 µM (KIT(L576P))	remaining binding at 1 µM (MEK2)	remaining binding at 1 µM [2]	remaining binding at 1 µM (IRAK4)	remaining binding at 1 µM (TNNI3K)	remaining binding at 1 µM (CDK8)	remaining binding at 1 µM (VEGFR2)	remaining binding at 1 µM (PKN2)	remaining binding at 1 µM (MAP3K2)	remaining binding at 1 µM (PKAC-beta)	remaining binding at 1 µM (JNK1)	remaining binding at 1 µM (DYRK2)	remaining binding at 1 µM (TXK)	remaining binding at 1 µM (PFPK5(P.falciparum))	further results
CCN1CCN(Cc2ccc(Nc3nc4ccc(Oc5ccnc(NC(C)=O)c5)cc4n3C)cc2C(F)(F)F)CC1 [Compound I-2]	98%	53%	1.2%	86%	98%	94%	0.2%	77%	95%	81%	23%	17%	0.85%	100%	21%	94%	79%	83%	100%	100%	remaining binding at 1 µM (RIOK2): 51%; remaining binding at 1 µM (CDK2): 100%; remaining binding at 1 µM (MLK1): 100%; remaining binding at 1 µM (PIP5K1C): 81%; remaining binding at 1 µM (EPHB1): 94%; remaining binding at 1 µM (LCK): 18%; remaining binding at 1 µM (MST3): 94%; remaining binding at 1 µM (EGFR(L858R, T790M)): 100%; remaining binding at 1 µM (EPHA3): 52%; remaining binding at 1 µM (PKNB(M.tuberculosis)): 80%; remaining binding at 1 µM (BRAF(V600E)): 0.8%; remaining binding at 1 µM (BUB 1): 100%; remaining binding at 1 µM (GRK2): 100%; remaining binding at 1 µM (MAP3K15): 88%; remaining binding at 1 µM (CSF1R): 0.1%; remaining binding at 1 µM [3]: 97%; remaining binding at 1 µM (HASPIN): 100%; remaining binding at 1 µM (BTK): 78%; remaining binding at 1 µM (LZK): 100%; remaining binding at 1 µM (NEK4): 56%
CCN1CCN(Cc2ccc(Nc3nc4ccc(Oc5ccnc(NC(C)=O)c5)c(C)c4n3C)cc2C(F)(F)F)CC1 [Compound I-6, N-(4-(2-(4-((4-ethylpiperazin-1-yl)methyl)-3-(trifluoromethyl)phenylamino)-1,7-dimethyl-1H-benzo[d]imidazol-6-yloxy)pyridin-2-yl)acetamide]	100%	75%	1.5%	97%	98%	95%	0%	100%	83%	98%	51%	10%	1.7%	93%	0.6%	86%	90%	97%	84%	91%	remaining binding at 1 µM (RIOK2): 96%; remaining binding at 1 µM (CDK2): 86%; remaining binding at 1 µM (MLK1): 100%; remaining binding at 1 µM (PIP5K1C): 85%; remaining binding at 1 µM (EPHB1): 95%; remaining binding at 1 µM (LCK): 1.6%; remaining binding at 1 µM (MST3): 90%; remaining binding at 1 µM (EGFR(L858R, T790M)): 100%; remaining binding at 1 µM (EPHA3): 68%; remaining binding at 1 µM (PKNB(M.tuberculosis)): 82%; remaining binding at 1 µM (BRAF(V600E)): 1.8%; remaining binding at 1 µM (BUB 1): 100%; remaining binding at 1 µM (GRK2): 91%; remaining binding at 1 µM (MAP3K15): 60%; remaining binding at 1 µM (CSF1R): 0.35%; remaining binding at 1 µM [3]: 82%; remaining binding at 1 µM (HASPIN): 93%; remaining binding at 1 µM (BTK): 88%; remaining binding at 1 µM (LZK): 75%; remaining binding at 1 µM (NEK4): 56%
